Read-outs that look alike come from different tables or passages of the source. Marks after values point to notes of the source that are not given here.
Experiments:
Calf Thymus DNA (CT-DNA) = test: DNA binding experiment: UV–vis absorption with CT-DNA; conditions: complex 50 μM, PBS pH 7.4, increasing CT-DNA
Description: In a quartz cuvette (path length 1 cm), the UV–vis spectra were recorded of a PBS buffer solution (pH 7.4)-containing complex (1, 2, or 3, 50 μM, 0.5% DMF). The UV–vis absorption spectra were successively recorded following each addition of aliquots of Calf Thymus DNA (CT-DNA, 50 μM) after an equilibration time of 1 h.[32],[33]

[1] = Experimental measurement of LogPow by RP-HPLC; format: physicochemical; conditions: for logPow^exp: RP-HPLC, water/methanol 80/20, 25 °C; for logPow (approximate): theoretical and experimental values in agreement
Description: Reverse phase high performance liquid chromatography (RP-HPLC) analysis was performed to correlate the hydrophobicity of the complexes with their retention time.

[2] = Stability in solution followed by absorption spectra over time; format: physicochemical; conditions: for fate in aqueous environment (aquation): DMSO/buffer 0.5% v/v pH 7.4, within 24 h, spectra supported by TD-DFT; for solubility in aqueous medium: inferred from reduction of optical density over time
Description: Spectrofluorimetric-grade solvents were used for the photophysical investigations. The buffer solution (pH 7.4) was prepared by dissolving one phosphate buffer saline table in 200 mL of water. Compounds 1–3 were dissolved in DMSO and then diluted to reach a final concentration of 1 × 10^–5 M in DMSO as well as DMSO/buffer 0.5% v/v. A PerkinElmer Lambda 900 spectrophotometer was employed to obtain the UV–visible absorption spectra, using 10 mm path-length quartz cuvettes.
The photophysical properties of 1–3 in DMSO have been previously discussed.[13],[35] In order to investigate the tendency of the Pt(II) complexes to undergo hydrolysis reactions giving the corresponding aqua-complexes, their stability in aqueous solution was monitored spectrophotometrically, acquiring the absorption profiles over time (t = 0, 3, 6, and 24 h). In particular, absorption spectra were registered by dissolving 1–3 in DMSO then diluted in buffer solution (DMSO 0.5% v/v). Moreover, in order to follow a possible aquation reaction with a slower kinetics, absorption spectra were recorded dissolving 1–3 in DMSO containing a low water content, by using a nonanhydrous spectroscopic-grade solvent.

[3] = tested on: human triple-negative breast cancer cell line MDA-MB-231; set-up: method as in doi:10.1002/aoc.5455; conditions: cited from earlier work
[4] = set-up: method as in PMID 21450275; conditions: cited from earlier work
MDA-MB-231 cell line = test: Intracellular Pt(II) content by ICP-MS; format: cell-based, human; conditions: 6 h, Figure 6A
Description: First, 200,000 cells/well were seeded in complete medium in a 12-well tray. […] These concentrations correspond to IC50 and IC50/2 of each compound according to our previous work aimed at analyzing the cytotoxic performance of these Pt(II) complexes in the MDA.MB.231 cell line.[13] […] An equal percentage of DMSO was added to control samples. Cells were thus washed two times with cold PBS and lysed with 200 μL of a homemade lysis buffer (Tris 50 mM pH 7, NaCl 150 mM, NP40 1% v/v, protease, and phosphatase inhibitors 1% v/v) for 30 min at 4 °C. The intracellular Pt(II) amount was quantified through ICP-MS (BRUKER aurora M90 ICP-MS, MA, USA), and data were normalized to the total protein content evaluated via bicinchoninic acid assay.
(A and C) Cells were seeded in complete medium (400,000 cells/well); the day after old media were discarded and cells were incubated for 6 h with media-containing compounds at the indicated concentrations, then intracellular protein were extracted, and intracellular ^195Pt was evaluated as ng ^195Pt over protein concentration (A) and further normalized vs the compounds’ working concentrations provided (C). Cisplatin was used as the positive control. An equal amount of DMSO was supplied in each experimental condition. Data are presented as mean ± SD of three different experiments; when invisible, the error bar is included into the bar line. […]

[5] = tested on: DNA of MDA-MB-231 cell line; test: DNA-bound Pt(II) by ICP-MS; format: cell-based, human
Description: First, 200,000 cells/well were seeded in the complete medium in a 12-well tray. The day after, the old media were discarded, and the cells were challenged with compound-containing media for 6 h (CisPt: 30 and 60 μM; 1: 25 and 50 μM; 2: 1 and 2 μM; 3: 50 and 100 μM). An equal percentage of DMSO was added to control samples. The cells were thus washed two times with cold phosphate buffered saline (PBS) and digested with 700 μL of a homemade digest buffer (Tris 50 mM pH 8, NaCl 100 mM, EDTA 100 mM, and SDS 1%). The suspensions were moved to vials, and 400 μL of NaCl-saturated solution was added to them. The suspensions were thus vortexed and centrifuged at 12,000 rpm for 5 min. The supernatants were retrieved, added with 500 μL of 2-propanol, vortexed, and centrifuged at 12,000 rpm for 15 min to let DNA precipitate. […] DNA-bound Pt(II) was quantified through inductively coupled plasma-mass spectrometry (ICP-MS), and data were normalized to DNA content quantified with NanoDrop Site.
(A and C) Cells were seeded in complete medium (400,000 cells/well); the day after old media were discarded and cells were incubated for 6 h with media-containing compounds at the indicated concentrations, then intracellular protein were extracted, and intracellular ^195Pt was evaluated as ng ^195Pt over protein concentration (A) and further normalized vs the compounds’ working concentrations provided (C). […]

Compound	UV–vis spectral change on addition of CT-DNA (Calf Thymus DNA (CT-DNA))	logPow^exp [1]	fate in aqueous environment (aquation) [2]	solubility in aqueous medium [2]	IC50 [3] [µM]	logPow^exp [4]	cytosolic localization (intracellular Pt) (MDA-MB-231 cell line; compared to cisplatin and the other compounds)	accumulation of platinum in the DNA, corrected for working concentration ([5]; 2 μM 1 compared to cisplatin 60 and 150 μM 2, 6 h, Figure 6D) [fold]	logPow (approximate) [1]	chromatographic logP [1]	intracellular protein-bound Pt compared to the highest cisplatin dose (MDA-MB-231 cell line; highest tested concentration) [fold]	increase in DNA-bound ^195Pt compared to cisplatin 60 μM ([5]; highest tested concentration, 6 h, Figure 6B) [fold]
N.N.O=C1c2ccccc2C(=O)c2c1ccc1c2[O][Pt][O]1 [Complex 3, [(NH3)2Pt(Aliz)]]	decrease of the band at 545 nm	0.47	converted to the corresponding mono-aquo complexes	poor solubility	127 ± 2.7							
N.N.O=C([O-])C1(C(=O)[O-])CCC1.[Pt+2] [carboplatin]						-2.30 ^a						
CCCC[N+](CCCC)(CCCC)CCCC.O=C1c2ccccc2C(=O)c2c1ccc1c2[O][Pt-]([c]2ccccc2-c2ccccn2)[O]1 (stereo not shown) [Complex 1, NBu4[(PhPy)Pt(Aliz)]]	decrease of the band at 545 nm	3.33	complete detachment of the (O^O) ligand		1.9 ± 1.6		barely localizes into cytosol	10	around 3			
O=C1c2ccccc2C(=O)c2c1ccc(O)c2O [alizarine]										1.87		
Brc1c(Br)c(Br)c2c(c1Br)[O][Pt-]([c]1ccccc1-c1ccccn1)[O]2.CCCC[N+](CCCC)(CCCC)CCCC [Complex 2, NBu4[(PhPy)Pt(BrCat)]]	decrease of the band at 545 nm	4.53	converted to the corresponding mono-aquo complexes	poor solubility	52.8 ± 3.9				~4.5		3	1.6

Reference: PMC9092348, “Cytotoxicity of Alizarine versus Tetrabromocathecol Cyclometalated Pt(II) Theranostic Agents: A Combined Experimental and Computational Investigation” (Inorganic Chemistry, 2022)
